Results on three molecules are retold here after US7256219B2, “Multifluoro-substituted chalcones and analogs as activators of caspases and inducers of apoptosis and the use thereof” (Cytovia, Inc., priority 2001, dated 2007).

For assay [1], the system named is T-47D cells. As to the kind of experiment: Caspase cascade activation (N-(Ac-DEVD)-N'-ethoxycarbonyl-R110 fluorogenic substrate) in T-47D cells. Type of assay: cell-based, Human. The note with it: 24 h incubation; for Caspase activity Ratio (net RFU of test compound to that of control): 0.016 to 10 μM final; for EC50: Homo sapiens, T47D, read-out: Caspase potency EC50. How it is done:
(§1) Human breast cancer cell lines T-47D and ZR-75-1 were grown according to media component mixtures designated by American Type Culture Collection+10% FCS (Invitrogen Corporation, Life Technologies Division), in a 5% CO2-95% humidity incubator at 37° C. T-47D and ZR-75-1 cells were maintained at a cell density between 50 and 80% confluency at a cell density of 0.1 to 0.6×10^6 cells/ml. Cells were harvested at 600×g and resuspended at 0.65×10^6 cells/ml into appropriate media+10% FCS. An aliquot of […] of cells was added to a well of a 96-well microtiter plate containing 2.5 μl of a 10% DMSO in RPMI-1640 media solution containing 0.16 to 100 μM of 1-[2,5-bis(2,2,2-trifluoroethoxy)phenyl]-3-[4-(trifluoromethyl)phenyl]-2-propen-1-one or other test compound (0.016 to 10 μM final). An aliquot of 22.5 μl of cells was added to a well of a 384-well microtiter plate containing 2.5 μl of a 10% DMSO in RPMI-1640 media solution without test compound as the control sample. The samples were mixed by agitation and then incubated at 37° C. for 24 h in a 5% CO2-95% humidity incubator. After incubation, the samples were removed from the incubator and 25 μl of a solution containing 14 μM of N-(Ac-DEVD)-N′-ethoxycarbonyl-R110 (SEQ. ID NO:1) fluorogenic substrate (Cytovia, Inc.; WO99/18856), 20% sucrose (Sigma), 20 mM DTT (Sigma), 200 mM NaCl (Sigma), 40 mM Na PIPES buffer pH 7.2 (Sigma), and 500 μg/ml lysolecithin (Calbiochem) was added. The samples were mixed by agitation and incubated at room temperature. Using a fluorescent plate reader (Model SpectraMax Gemini, Molecular Devices), an initial reading (T=0) was made approximately 1-2 min after addition of the substrate solution, employing excitation at 485 nm and emission at 530 nm, to determine the background fluorescence of the control sample. After the 3 h incubation, the samples were read for fluorescence as above (T=3 h).
(§2) The Relative Fluorescence Unit values (RFU) were used to calculate the sample readings as follows: RFU(T=3h)−Control RFU(T=0)=Net RFU(T=3h)
(§3) The activity of caspase cascade activation was determined by the ratio of the net RFU value for 1-[2,5-bis(2,2,2-trifluoroethoxy)phenyl]-3-[4-(trifluoromethyl)phenyl]-2-propen-1-one or other test compound to that of control samples. The EC50 (nM) was determined by a sigmoidal dose-response response calculation (Prism 2.0, GraphPad Software Inc.).

For assay [2], the system named is ZR-75-1 cells. As to the kind of experiment: Caspase cascade activation (N-(Ac-DEVD)-N'-ethoxycarbonyl-R110 fluorogenic substrate) in ZR-75-1 cells. It is filed as cell-based, Human. The settings on record: ZR-75-1, 24 h incubation; for EC50: Homo sapiens, read-out: Caspase potency EC50; for Caspase activity Ratio (net RFU of test compound to that of control): 0.016 to 10 μM final. How it is done: as §1, §2, §3

For assay [3], the system named is T-47D. As to the kind of experiment: Inhibition of cell proliferation (GI50), T-47D. It is filed as cell-based. The settings on record: Homo sapiens, T47D, 48 h. How it is done:
(§4) All the cell lines were grown according to the conditions recommended by American Type Culture Collection. An aliquot of 90 μl of cells (2.2×10^4 cells/ml) was added to a well of a 96-well microtiter plate containing 10 μl of a 10% DMSO in RPMI-1640 media solution containing 1 nM to 100 μM of 1-[2,5-bis(2,2,2-trifluoroethoxy)phenyl]-3-[4-(trifluoromethyl)phenyl]-2-propen-1-one (0.1 nM to 10 μM final). An aliquot of 90 μl of cells was added to a well of a 96-well microtiter plate containing 10 μl of a 10% DMSO in RPMI-1640 media solution without compound as the control sample for maximal cell proliferation (AMax). The samples were mixed by agitation and then incubated at 37° C. for 48 h in a 5% CO2-95% humidity incubator. After incubation, the samples were removed from the incubator and 20 μl of CellTiter 96 AQUEOUS One Solution Cell Proliferation™ reagent (Promega) was added. […] Using an absorbance plate reader (Model 1420 Wallac Instruments), an initial reading (T=0) was made approximately 1-2 min after addition of the solution, employing absorbance at 490 nm. This determines the possible background absorbance of the test compounds. No absorbance for 1-[2,5-bis(2,2,2-trifluoroethoxy)phenyl]-3-[4-(trifluoromethyl)phenyl]-2-propen-1-one was found at 490 nm. After the 2-4 h incubation, the samples were read for absorbance as above (ATest). […]

The test system of assay [4] is SK-Br-3. As to the kind of experiment: Inhibition of cell proliferation (GI50), SK-Br-3. Type of assay: cell-based. The settings on record: Homo sapiens, SK-BR-3, 48 h. How it is done: as §4
The test system of assay [5] is MDA-MB-435. As to the kind of experiment: Inhibition of cell proliferation (GI50), MDA-MB-435. Type of assay: cell-based. The note with it: Homo sapiens, MDA-MB-435, 48 h. How it is done: as §4
For assay [6], the system named is MCF-7. As to the kind of experiment: Inhibition of cell proliferation (GI50), MCF-7. Type of assay: cell-based. The settings on record: Homo sapiens, MCF7; MCF-7, 48 h. How it is done:
as §4

Assay [7] concerns PC-3. Kind of assay: Inhibition of cell proliferation (GI50), PC-3. The settings on record: Homo sapiens, PC-3, 48 h. It is filed as cell-based. How it is done: as §4
Assay [8] relates to HeLa. As to the kind of experiment: Inhibition of cell proliferation (GI50), HeLa. It is filed as cell-based. The note with it: Homo sapiens, 48 h. How it is done: as §4
The test system of assay [9] is DLD-1. Kind of assay: Inhibition of cell proliferation (GI50), DLD-1. Type of assay: cell-based. The note with it: Homo sapiens, DLD-1, 48 h. How it is done:
as §4

In assay [10] the test system is K562. As to the kind of experiment: Inhibition of cell proliferation (GI50), K562. Type of assay: cell-based. The note with it: Homo sapiens, K562, 48 h. How it is done:
as §4

The test system of assay [11] is PANC-1. As to the kind of experiment: Inhibition of cell proliferation (GI50), PANC-1. Type of assay: cell-based. The settings on record: Homo sapiens, PANC-1, 48 h. How it is done:
as §4

In assay [12] the test system is T-47D cells. Kind of assay: Cell cycle arrest and apoptosis in T-47D cells (propidium iodide flow cytometry). It is filed as cell-based, Human. The settings on record: 10 μM. How it is done:
T-47D, a breast cancer cell line, was maintained and harvested as described in Example 23. […] As a control, cells were also incubated with equivalent amount of solvent (DMSO). Cells were harvested at 1,200 rpm and then transferred to 12×75 mm polystyrene tubes. Cells were then resuspended in 500 μl of 1% Na Citrate, 0.1% Triton X-100, and 50 μg/ml of propidium iodide and incubated at room temperature for 30 min followed by flow cytometer analysis. All flow cytometry analyses were performed on FACScalibur (Becton Dickinson) using Cell Quest analysis software. The x-axis plotted the amount of fluorescence and the y-axis is plotted the number of cells with the indicated fluorescence. […] An increase from 13% to 33% in the sub-diploid DNA content of cells (FIG. 1) is also seen with compound treatment. The sub-diploid amount of DNA is indicative of apoptotic cells which have undergone DNA degradation or fragmentation.

In the case of `O=C(C=Cc1ccccc1)c1cc(OCC(F)(F)F)ccc1OCC(F)(F)F` [Example 3, 1-[2,5-Bis(2,2,2-trifluoroethoxy)phenyl]-3-phenyl-2-propen-1-one], in [1], the “Caspase activity Ratio (net RFU of test compound to that of control)” value (“Caspase activity Ratio” for short) came to 6.8 and the EC50 worked out at 1600 nM. In assay [2], the EC50 stood at 5400 nM and the “Caspase activity Ratio” value came to 3.3.

On to `O=C(C=Cc1ccc(C(F)(F)F)cc1)c1cc(OCC(F)(F)F)ccc1OCC(F)(F)F` [Example 4, 1-[2,5-Bis(2,2,2-trifluoroethoxy)phenyl]-3-[4-(trifluoromethyl)phenyl]-2-propen-1-one], for which the “Caspase activity Ratio” value in assay [1] is given as 25.2; in assay [2] it was 5.5. Besides, the figures for the EC50 in [1] and in [2] were 5000 nM and 6000 nM, respectively. The GI50 in [3] stood at 1500 nM; in assay [4] it was 1800 nM; in [5] it was 3200 nM; in [6] it was 2400 nM; in [7], 3000 nM; in assay [8], 2300 nM. Also, the values for the GI50 in [9], in [10] and in assay [11] were 2500 nM, 2200 nM and 3100 nM, respectively. The “sub-diploid DNA content of cells (M1)” value in assay [12] (T47D, 24 h, FIG. 1B legend) is “increase of sub-diploid DNA content of cells”. For the same molecule, the “G2/M DNA content cells” value in assay [12] (T-47D, FIG. 1B) is on record as “increase in G2/M DNA content cells”. Besides, the “sub-diploid DNA content of cells” value in assay [12] (T-47D, control 13%) amounted to 33%.

On to `O=C(C=Cc1ccc([N+](=O)[O-])cc1)c1cc(OCC(F)(F)F)ccc1OCC(F)(F)F` [Example 15, 1-[2,5-Bis(2,2,2-trifluoroethoxy)phenyl]-3-(4-nitrophenyl)-2-propen-1-one], for which, in assay [1], the “Caspase activity Ratio” value is reported as 20.4 and the EC50 is 6800 nM. Moreover, in assay [2], the EC50 amounted to 6900 nM and the “Caspase activity Ratio” value is 14.9.
